Columns and labels:
[1] = system: V. fischeri luxRI system (AHL quorum sensing, gfp fused to luxI promoter); assay: N-acylated homoserine lactone (AHL) quorum sensing assay, GFP reporter strain; assay type: cell-based, E. coli; conditions: for ID40 at 3 nM OHHL: value in brackets; for AIC40: inhibition index: slope of ID40 vs AHL concentration, lower is better
Description: Compounds of the present invention were compared to compounds of the prior art in order using an AHL-quorum sensing assay which utilises a reporter strain that expresses Green Fluorescent Protein (GFP) in the presence of AHL signals. The assay is performed by measuring GFP output in the presence of the compound to be measured and comparing the output to a control. By using multiple samples at varying concentrations of compound and AHL, an inhibition index of compound activity can be generated. The inhibition index used in the present example is the relative amount of compound required to reduce GFP expression to 40% of the control. The inhibition index is termed AIC40. Lower values of AIC40 represent better inhibitors of the AHL quorum sensing system.
The reporter strain of bacterium used in this assay is E. coli into which the V. fischeri luxRI system has been engineered. A gfp gene is fused to the QS controlled luxI promoter as is described in (Andersen et al., 2001, and Andersen et al, 1998).
Measurement of AIC40 (ID40 at 3 nM OHHL)
Determination of the activity of compounds using the E. coli based luxRI construct was performed as follows.
In a 15 mL plastic tube, mix 3 mL of o.n. culture of the lux reporter strain with 12 mL fresh medium, incubate at 37° C. Label six tubes, 10, 20, two 50 and two 100. To each of the tubes, add OHHL (3-oxohexanoyl homoserine lactone) to a final concentration of 10, 20, 50, or 100 nM respectively in the AB medium (add enough medium to distribute across the appropriate number of wells). To the first row of the microplate (row A), add 200 ul of the OHHL/AB mixture. To the remaining rows (B-H) add 100 ul of the OHHL/AB mixture. To the first row (A) add compounds to be tested to the 200 ul mixture of OHHL/AB. Make a dilution series in the first 7 rows by transferring 100 μL from wells in row 1 to wells in row 2 and so on. Discard the remaining 100 μL from row 7. Add 100 μL diluted lux monitor to each well. Incubate the plate 2 hours at 37° C. and measure green fluorescence using the “Victor” plate reader.
Calculate ID40 for each column. To do this, calculate the relative activity in each well. […] Make a plot for each concentration of OHHL vs. the range of compound concentrations used. Calculate the amount of compound needed to lower the relative activity to 40%, this is termed inhibiting dose 40%, ID40. For each compound an inhibition index, AIC40, is found as follows: plot ID40 against its respective AHL concentration; AIC40 is the slope of the best straight line through the plotted points and origin.

[2] = system: LasR quorum sensing system; assay: LasR assay (unstable gfp fused to elastase promoter); assay type: cell-based, Pseudomonas aeruginosa; conditions: for LasR % inhibition at 100 μg/ml: 100 μg/ml compound; for inhibition at 50 µg/mL / inhibition at 25 µg/mL / inhibition at 100 µg/mL: Pseudomonas aeruginosa; for inhibition at 50 µg/mL: read-out: LasR % inhibition at 50 μg/ml; for inhibition at 25 µg/mL: read-out: LasR (% inhibition at 25 ug/ml compound); for inhibition at 100 µg/mL: read-out: LasR % inhibition at 100 μg/ml
Description: Compounds of the present invention were also assayed using a LasR assay. The LasR assay provides a measurement of quorum sensing inhibition activity. […] In the LasR assay, an unstable gfp has been fused to the elastase promoter, so that the amount of Gfp is regulated by the QS system. The plasmid is put into Pseudomonas aeruginosa which makes its own AHL signals. The assay is performed by adding the compounds to be tested to the system at the beginning of the experiment, at different concentrations. Gfp expression is measured at different times during growth, ending at the 24 h time point. The percentage fluorescence was determined at the time point when the fluorescence reached its maximum in the control, usually around 11-12 h after inoculation.

[3] = system: Pseudomonas aeruginosa biofilm; assay: Inhibition of biofilm formation, Petri dish model, Pseudomonas aeruginosa; assay type: cell-based; conditions: 10 μg/mL, 48 h exposure
Description: (§1) Compounds were run in a Petri dish model—where the cells of E. coli or Pseudomonas aeruginosa were exposed to the compound for 48 h. The amount of biofilm was determined by combining image data of the XY (surface cover in one plane) and XZ (depth). The controls gave good biofilm cover and some structure formation.

E. coli biofilm = assay: Inhibition of biofilm formation, Petri dish model, E. coli; assay type: cell-based; conditions: 48 h exposure
Description: as §1

[4] = amount lowering GFP activity to 40%

Molecule `O=C1C=C(c2ccc(C(F)(F)F)cc2)/C(=C/c2ccc(C(F)(F)F)cc2)O1` [Compound 17, (Z)-4-(4′-(trifluoromethyl)phenyl)-5-(4″-(trifluoromethyl)benzylidene)furan-2(5H)-one] has a melting point of 127.5 to 129 °C.

Work on `O=C1C=C(Br)CO1` [Compound 11, 4-Bromofuran-2(5H)-one] yielded a melting point of 72 to 74 °C.

`O=C1C=C(c2ccc(C(F)(F)F)cc2C(F)(F)F)CO1` [Compound 15, 4-(2′,4′-Bis(trifluoromethyl)phenyl)furan-2(5H)-one] gave a melting point of 116 to 117 °C.

For “(Z)-4-(3′-(Trifluoromethyl)phenyl)-5-(3″-(trifluoromethyl)benzylidene)furan-2(5H)-one [Compound 23]”, the “ID40 at 3 nM OHHL” value [1, 4] was 22.1, the AIC40 [1] was 4.64 and the “LasR (% inhibition at 25 ug/ml compound)” value [2] was 23%. For the same molecule, the “LasR % inhibition at 100 μg/ml” value [2] was 46.4%.

With `O=C1C=C(c2ccccc2C(F)(F)F)CO1` [Compound 9, 4-(2′-Trifluoromethylphenyl)furan-2(5H)-one] the melting point was 49 to 50 °C.

Molecule `O=C1C=C(c2cccc(C(F)(F)F)c2)CO1` [Compound 8, 4-(3′-Trifluoromethylphenyl)furan-2(5H)-one] has an inhibition at 50 µg/mL [2] of 42.2%, an inhibition at 25 µg/mL [2] of 22% and a melting point of 124 to 125 °C.

In the case of `O=C1C=C(c2cccs2)CO1` [Compound 6, 4-(Thiophen-2′-yl)furan-2(5H)-one], the “ID40 at 3 nM OHHL” value [1, 4] was 58.7, the AIC40 [1] was 24.6 and the inhibition at 25 µg/mL [2] was 10%. The melting point was 94 to 96.5 °C, the “% biofilm” value [3] was 77% and the “% biofilm” value (E. coli biofilm; 25 μg/mL) was 87.7%. For the same molecule, the “% biofilm” value (E. coli biofilm; 40 μg/mL) was 97%.

For `O=C1C=C(c2ccsc2)CO1` [Compound 14, 4-(Thiophen-3′-yl)furan-2(5H)-one], the “ID40 at 3 nM OHHL” value [1] was 60 µM, the AIC40 [1] was 4.9 and the inhibition at 25 µg/mL [2] was 15%. For the same molecule, the melting point was 130.5 to 132 °C.

With “(Z)-5-(4-(trifluoromethyl)benzylidene)furan-2(5H)-one [Compound 29]” the “LasR (% inhibition at 25 ug/ml compound)” value [2] was 15.8% and the “LasR % inhibition at 100 μg/ml” value [2] was 38.4%.

For `O=C1C=C(c2ccc(F)cc2)CN1` [Compound 36, 4-(4′-Fluorophenyl)-1H-pyrrol-2(5H)one], the melting point was 190 °C.

For `O=C1C=C(c2ccc(F)cc2)CO1` [Compound 2, 4-(4′-Fluorophenyl)furan-2(5H)-one], the “ID40 at 3 nM OHHL” value [1, 4] was 39.4 and the AIC40 [1] was 14.39.

In the case of `O=C1C=C(c2ccc(OC(F)(F)F)cc2)/C(=C/c2ccc(OC(F)(F)F)cc2)O1` [Compound 21, (Z)-4-(4′-(Trifluoromethoxy)phenyl)-5-(4″-(trifluoromethoxy)benzylidene)furan-2(5H)-one], the “ID40 at 3 nM OHHL” value [1, 4] was 148, the AIC40 [1] was 4.4 and the inhibition at 100 µg/mL [2] was 47%. The inhibition at 25 µg/mL [2] was 14.7%.

With `O=C1C=C(c2ccc(C(F)(F)F)cc2)CO1` [Compound 3, 4-(4′-Trifluoromethylphenyl)furan-2(5H)-one] the “ID40 at 3 nM OHHL” value [1, 4] was 4.37, the AIC40 [1] was 0.77 and the inhibition at 25 µg/mL [2] was 22%.

For `O=C1C=C(c2ccc(F)cc2F)CO1` [Compound 1, 4-(2′,4′-Difluorophenyl)furan-2(5H)-one], the “ID40 at 3 nM OHHL” value [1, 4] was 17.83 and the AIC40 [1] was 7.6.

Work on `CC1OC(=O)C=C1c1ccccc1` (centres unmarked) [Compound 27, 5-methyl-4-phenyl-2(5H)furanone] yielded an inhibition at 100 µg/mL [2] of 57% and an inhibition at 25 µg/mL [2] of 9%.

`O=C1C=C(c2ccccc2)/C(=C/c2cccc(C(F)(F)F)c2)O1` [Compound 13] showed a melting point of 108 to 110 °C.

For `O=C1C=C(Br)/C(=C/c2ccsc2)O1` [Compound 25], the inhibition at 100 µg/mL [2] was 78% and the inhibition at 25 µg/mL [2] was 20%.

With “(Z)-5-(4-fluorobenzylidene)furan-2(5H)-one [Compound 28]” the “LasR (% inhibition at 25 ug/ml compound)” value [2] was 13% and the “LasR % inhibition at 100 μg/ml” value [2] was 53%.

In the case of `O=C1C=C(c2cccc(C(F)(F)F)c2)/C(=C/c2cccc(C(F)(F)F)c2)O1` [Compound 24], the inhibition at 100 µg/mL [2] was 35% and the inhibition at 25 µg/mL [2] was 19%.

In the case of `Cc1noc(C)c1C1=CC(=O)OC1` [Compound 7, 4-(3′,5′-Dimethylisoxazol-4′-yl)furan-2(5H)-one], the melting point was 101 to 103 °C.

With `Cn1cc(C2=CC(=O)OC2)cn1` [Compound 12, 4-(N-Methylpyrazol-4′-yl)furan-2(5H)-one] the inhibition at 50 µg/mL [2] was 22.9% and the melting point was 181 to 182 °C.

In the case of `O=C1C=C(Br)/C(=C/c2cccs2)O1` [Compound 26], the inhibition at 100 µg/mL [2] was 76% and the inhibition at 25 µg/mL [2] was 30%.

In the case of `O=C1C=C(c2ccc(OC(F)(F)F)cc2)CO1` [Compound 5, 4-(4′-Trifluoromethoxyphenyl)furan-2(5H)-one], the “ID40 at 3 nM OHHL” value [1, 4] was 11.37, the AIC40 [1] was 5.9 and the inhibition at 50 µg/mL [2] was 43.2%. For the same molecule, the inhibition at 25 µg/mL [2] was 19.3% and the melting point was 122 to 123 °C.

For `O=C1C=C(c2ccc(Br)cc2)CN1` [Compound 35, 4-(4′-Bromophenyl)-pyrrol-2(5H)-one], the melting point was 233 to 235 °C (dec.).

— patent US8586618B2, “Furanone compounds and lactam analogues thereof” (Biosignal Limited, priority 2006, dated 2013)
